How the values were obtained:
Assay in all cases: relative viability (nuclei count vs DMSO), 5 days (fraction); higher = more cells survive
Alpelisib + Luminespib = compound: Cc1nc(NC(=O)N2CCC[C@H]2C(N)=O)sc1-c1ccnc(C(C)(C)C(F)(F)F)c1 [Alpelisib] + CCNC(=O)c1noc(-c2cc(C(C)C)c(O)cc2O)c1-c1ccc(CN2CCOCC2)cc1 [Luminespib] (partner 0.01 µM)
Procedure, shortened: (§1)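 After 5 days of treatment, lung cancer cells in 1536-well plates were fixed and stained in a single step (final 0.05% Triton X-100, 1% formaldehyde, 1 ug/ml Hoechst) and their nuclei counted on 4× images. Treatment had been applied by pin tool the day after seeding as one drug alone or as a fixed anchor-drug dose with five library-drug doses (not always all listed) in √10 steps. Relative viability is the nuclei count of treated wells divided by that of vehicle wells, and values are medians of duplicate plates.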

Vemurafenib + OSI-027 = compound: CCCS(=O)(=O)Nc1ccc(F)c(C(=O)c2c[nH]c3ncc(-c4ccc(Cl)cc4)cc23)c1F [Vemurafenib] + COc1cccc2cc(-c3nc([C@H]4CC[C@H](C(=O)O)CC4)n4ncnc(N)c34)[nH]c12 [OSI-027] (partner 0.5 µM)
Procedure, shortened: as §1

Alpelisib + Trametinib = compound: Cc1nc(NC(=O)N2CCC[C@H]2C(N)=O)sc1-c1ccnc(C(C)(C)C(F)(F)F)c1 [Alpelisib] + CC(=O)Nc1cccc(-n2c(=O)n(C3CC3)c(=O)c3c(Nc4ccc(I)cc4F)n(C)c(=O)c(C)c32)c1 [Trametinib] (partner 0.02 µM)
Procedure, shortened: as §1

OSI-027 + AZD7762 = compound: COc1cccc2cc(-c3nc([C@H]4CC[C@H](C(=O)O)CC4)n4ncnc(N)c34)[nH]c12 [OSI-027] + NC(=O)Nc1cc(-c2cccc(F)c2)sc1C(=O)N[C@H]1CCCNC1 [AZD7762] (partner 0.2 µM)
Procedure, shortened: as §1

Cell Line	relative viability (Alpelisib + Luminespib; first compound 0.04 µM)	relative viability (Alpelisib + Luminespib; first compound 0.1265 µM)	relative viability (Alpelisib + Luminespib; first compound 0.4 µM)	relative viability (Alpelisib + Luminespib; first compound 1.265 µM)	relative viability (Alpelisib + Luminespib; first compound 4 µM)	relative viability (Vemurafenib + OSI-027; first compound 0.03162 µM)	relative viability (Vemurafenib + OSI-027; first compound 0.1 µM)	relative viability (Vemurafenib + OSI-027; first compound 0.3162 µM)	relative viability (Vemurafenib + OSI-027; first compound 1 µM)	relative viability (Alpelisib + Trametinib; first compound 0.04 µM)	relative viability (Alpelisib + Trametinib; first compound 0.1265 µM)	relative viability (Alpelisib + Trametinib; first compound 0.4 µM)	relative viability (Alpelisib + Trametinib; first compound 1.265 µM)	relative viability (Alpelisib + Trametinib; first compound 4 µM)	relative viability (OSI-027 + AZD7762; first compound 0.01 µM)	relative viability (OSI-027 + AZD7762; first compound 0.03162 µM)	relative viability (OSI-027 + AZD7762; first compound 0.1 µM)	relative viability (OSI-027 + AZD7762; first compound 0.3162 µM)	relative viability (OSI-027 + AZD7762; first compound 1 µM)
LXF-289	0.69	0.806	0.619	0.534	0.632	0.758	0.668	0.622	0.772	0.632	0.632	0.71	0.609	0.694	1.06	1.02	1.23	1.15	0.959
NCI-H596	0.832	0.884	0.87	0.599	0.424	0.686	0.723	0.577	0.492	0.801	0.815	0.708	0.48	0.44	1.14	1.08	1.08	1.06	0.943
NCI-H358	0.29	0.23	0.32	0.252	0.215	0.7	0.47	0.928	0.882	0.138	0.118	0.128	0.11	0.1	0.544	0.472	0.543	0.56	0.347
NCI-H1355	0.679	0.575	0.83	0.608	0.514	0.41	0.341	0.386	0.351	0.397	0.421	0.386	0.356	0.292	0.703	0.88	0.753	0.628	0.38
NCI-H727	0.419	0.444	0.3	0.371	0.345	0.571	0.561	1.08	0.526	0.349	0.387	0.383	0.301	0.308	0.557	0.568	0.41	0.576	0.546
SW 900	0.163	0.168	0.177	0.138	0.173	0.527	0.545	0.535	0.433	0.733	–	1.11	0.761	0.745	0.669	0.575	0.499	0.508	0.402
NCI-H322M	0.795	0.737	0.789	0.45	0.39	0.461	–	–	0.475	0.516	0.497	0.49	0.367	0.411	0.621	0.61	0.481	0.427	0.419
